Values joined by “and” are separate entries in the source; they are usually repeats but may differ in a detail not shown here. Equal entries are not always repeated. Where two headings read alike, the source gives them in different places. Marks after values point to notes of the source that are not given here.
Columns and labels:
M. tuberculosis [1] = experiment: High content assay of intracellular M. tuberculosis growth in infected RAW264.7 macrophages; format: cell-based, Mycobacterium tuberculosis H37Rv-LP; settings: Mycobacterium tuberculosis, RAW264.7, 72 h, M. tuberculosis in RAW264.7 cells, MOI 1, 72 h; read-out: Intracellular activity Anti-tubercular activity IC50
Method: Compounds were obtained in 384-well plates as 10 mM DMSO stock solutions and tested as described ([Manning et al., 2017]). Briefly, assay plates were prepared in clear bottom, black 384-well plates with 30 μl cRPMI and 0.6 μl compound in columns 3–22 (final concentration of 10 μM compound, 1% DMSO). […] INH and STA were also included in dose response on each plate. RAW264.7 cells were infected with M. tuberculosis DREAM8 as described ([Manning et al., 2017]) at an MOI of 1 for 24 h and extracellular bacteria removed by washing. Cells were recovered using Accumax, harvested, washed and resuspended in serum-free RPMI; 30 μl of infected cells were dispensed into each well at 3,300 cells/well. Plates were incubated for 72 h, 10 μl of 5X SYBR Green I was added and plates were imaged with an ImageXpress Micro High Content Screening System (Molecular Devices) using a ×4 objective and FITC and Texas Red channels. MetaXpress was used to analyze images. The integrated intensity of M. tuberculosis or macrophages was calculated for each well. Growth inhibition was calculated for each test well by normalizing to the average integrated intensity of the DMSO control wells. IC50 was calculated as the compound concentration required to reduce bacterial growth by 50%. TC50 was calculated as the compound concentration required to reduce macrophage viability by 50%.

[2] = HepG2 cytotoxicity (CellTiter-Glo, 72 h); format: cell-based, human; settings: human
Method: (§1) Cytotoxicity against HepG2 cells was measured after 72 h. Cells were seeded in 384-well plates at 1,800 cells per well. Compounds were added as a 10-point three-fold serial dilution after 24 h (final assay concentration of 1% DMSO). CellTiter-Glo® reagent (Promega) was added and relative luminescence units (RLU) measured. Data were normalized to the DMSO controls. Curves were fitted using the Levenberg–Marquardt algorithm; TC50 was calculated as the compound concentration required to reduce cell viability by 50%.
(§2) We further evaluated cytotoxicity using the HepG2 cell line cultured with either glucose or galactose in the medium (Table 2). HepG2 cells cultured with galactose rely on mitochondrial oxidative phosphorylation rather than glycolysis which increases their susceptibility to mitochondrial toxicants allowing us to identify compounds with mitochondrial toxicity ([Kamalian et al., 2015]).

HepG2 cells = experiment: HepG2 cytotoxicity (CellTiter-Glo, 72 h); format: cell-based, human; settings: for HepG2 cytotoxicity TC50 Galactose / HepG2 cytotoxicity TC50 Glucose: 72 h
Method: as §1, §2

RAW264.7 cells = experiment: Macrophage viability in the same high content assay; settings: infected RAW264.7 macrophages, 72 h
M. tuberculosis [3] = experiment: Minimum inhibitory concentration in liquid medium (axenic culture); format: cell-based, Mycobacterium tuberculosis; settings: Mycobacterium tuberculosis, 120 h; for IC50: read-out: Anti-tubercular activity in axenic culture IC50; for IC90: read-out: Anti-tubercular activity in axenic culture IC90

Row | Structure (SMILES) | IC50 (M. tuberculosis [1]) [µM] | IC50 at 72 h ([2]; HepG2 cytotoxicity IC50 Galactose) [µM] | IC50 at 72 h ([2]; HepG2 cytotoxicity IC50 Glucose) [µM] | ratio of TC50glu/TC50gal (HepG2 cells; HepG2, glucose vs galactose) | HepG2 cytotoxicity TC50 Galactose (HepG2 cells; human) | HepG2 cytotoxicity TC50 Glucose (HepG2 cells; human) | Intracellular activity Cytotoxicity TC50 (RAW264.7 cells) | IC50 (M. tuberculosis [3]; extracellular, 5 days, OD590) [µM] | IC90 (M. tuberculosis [3]; extracellular, 5 days, OD590) [µM] | HepG2 cytotoxicity TC50 Galactose (HepG2 cells; galactose medium) | HepG2 cytotoxicity TC50 Glucose (HepG2 cells; glucose medium) | IC50 (M. tuberculosis [3]) [µM] | IC90 (M. tuberculosis [3]) [µM]
1 | NNC(=O)c1ccncc1 [INH, isoniazid, reference compound] | 0.23 ± 0.08 | – | – | – | – | – | – | – | – | – | – | – | –
2 | COc1c(Cl)ccc(Cl)c1C(=O)Nc1sc2c(c1C(N)=O)CCCC2 [TPN-0073571] | – | 26 ± 5 | > 100 | ~4 | 26 ± 5.0 ^b µM | >100 ^b µM | 15 ± 5 µM and 15 ± 5.0 ^b µM | – | – | – | – | – | –
3 | CCOC(=O)c1sc(NC(=O)Cc2c(F)cccc2Cl)nc1C [TPN-0089695] | 4.7 ± 1.2 | – | – | – | >100 ^e µM | >100 ^d µM | 45 ± 17 ^b µM | 19 | > 20 | – | – | – | –
4 | Cn1nc(C2CC2)cc1C(=O)Nc1ccc(I)cc1 [TPN-0089788] | 2.5 ± 0.57 | – | – | – | 30 ± 12 ^e µM | 52 ± 18 ^e µM | >100e µM | > 20 | > 20 | – | – | – | –
5 | Clc1ccc(Nc2nc(-c3cccs3)cs2)cc1 [TPN-0095025] | 4.4 ± 1.7 | – | – | – | 28 ± 1.5 ^b µM | 35 ± 1.0 ^a µM | 26 ± 7.1 ^c µM | > 20 | > 20 | – | – | – | –
6 | Clc1ccc(C2C=C(c3ccc(Br)cc3)Nc3ncnn32)cc1 (stereo not drawn) [TPN-0095026] | – | – | – | – | 18 ± 5 ^b µM | 19 ± 3.5 ^b µM | 19 ± 12 ^b µM | 19 ± 1 | > 20 | – | – | – | –
7 | COc1ccc(CNC(=O)c2c(C)nc3ccccn23)cc1 [TPN-0095027] | 0.1 ± 0.01 | – | – | – | 22 ± 2.2 ^c µM | 76 ± 12 ^c µM | 72 ± 16 ^d µM | 0.17 ± 0.02 | 0.6 ± 0.2 | – | – | – | –
8 | Cc1ccc(Nc2nc(C(N)=O)c(N)s2)cc1 [TPN-0095028] | 4.4 ± 1.3 | – | – | – | 62 ± 6.2 ^c µM | 54 ± 9.4 ^c µM | 54 ± 20 ^b µM | > 20 | > 20 | – | – | – | –
9 | COc1ccc(C2Oc3ccc(Cl)cc3C3=C2C(c2ccc(OC)cc2)n2ncnc2N3)cc1 (stereo not drawn) [TPN-0095029] | > 50 | – | – | – | >50 ^b µM | >50 ^b µM | >50 ^b µM | > 10 | > 10 | – | – | – | –
10 | Clc1c(-c2ccccc2)nc2ccccn12 [TPN-0095030] | 6.9 ± 1.9 | – | – | – | >100 ^b µM | >100 ^b µM | >100 ^b µM | > 20 | > 20 | – | – | – | –
11 | COc1ccc(OCCNC(=O)c2cc([N+](=O)[O-])cc([N+](=O)[O-])c2)cc1 [TPN-0095031] | 0.036 ± 0.007 | – | – | – | – | – | 40 ± 25 ^e µM | – | – | 52 ± 0.47 ^c µM | 57 ± 6.2 ^c µM | 0.2 ± 0.07 | 0.4 ± 0.14
